Source: the NIST ThermoML archive (doi:10.1016/j.jct.2009.11.014)
± gives the expanded uncertainty stated by the source.

Conditions: Liquid; for mass density: vibrating tube; for viscosity: Stony Brook Scientific falling needle HPHTV-100 viscometer

CCCCCCn1cc[n+](C)c1.F[B-](F)(F)F [1-hexyl-3-methylimidazolium tetrafluoroborate]
Conditions	mass density [kg/m3]	viscosity [mPa·s]
283.15 K, 100 kPa	1155.97 ± 0.97	–
283.15 K, 2000 kPa	1156.84 ± 0.96	–
283.15 K, 4000 kPa	1157.76 ± 0.96	–
283.15 K, 6000 kPa	1158.69 ± 0.98	–
283.15 K, 8000 kPa	1159.61 ± 0.96	–
283.15 K, 10000 kPa	1160.53 ± 0.96	–
283.15 K, 12000 kPa	1161.43 ± 0.96	–
283.15 K, 14000 kPa	1162.34 ± 0.96	–
283.15 K, 20000 kPa	1165.02 ± 0.95	–
283.15 K, 30000 kPa	1169.4 ± 0.96	–
283.15 K, 40000 kPa	1173.6 ± 0.96	–
283.15 K, 50000 kPa	1177.7 ± 0.96	–
283.15 K, 60000 kPa	1181.65 ± 0.97	–
285.09 K, 4270 kPa	–	449.6 ± 50
285.15 K, 130 kPa	–	420.5 ± 46
285.15 K, 1400 kPa	–	430.2 ± 47
285.15 K, 3170 kPa	–	437 ± 48
285.15 K, 5380 kPa	–	457.2 ± 52
285.15 K, 12640 kPa	–	495.6 ± 54
285.2 K, 5080 kPa	–	447.9 ± 49
285.22 K, 12000 kPa	–	488.4 ± 54
285.23 K, 7090 kPa	–	460.6 ± 51
285.23 K, 10000 kPa	–	481.6 ± 53
285.23 K, 14220 kPa	–	504.9 ± 56
285.25 K, 8290 kPa	–	468.5 ± 52
288.15 K, 100 kPa	1152.44 ± 0.97	–
288.15 K, 2000 kPa	1153.37 ± 0.96	–
288.15 K, 4000 kPa	1154.32 ± 0.96	–
288.15 K, 6000 kPa	1155.11 ± 0.96	–
288.15 K, 8000 kPa	1156.19 ± 0.96	–
288.15 K, 10000 kPa	1157.11 ± 0.96	–
288.15 K, 12000 kPa	1158.05 ± 0.96	–
288.15 K, 14000 kPa	1158.97 ± 0.96	–
288.15 K, 20000 kPa	1161.68 ± 0.96	–
288.15 K, 30000 kPa	1166.05 ± 0.96	–
288.15 K, 40000 kPa	1170.31 ± 0.96	–
288.15 K, 50000 kPa	1174.45 ± 0.97	–
288.15 K, 60000 kPa	1178.4 ± 0.97	–
293.15 K, 100 kPa	1148.92 ± 0.96	–
293.15 K, 2000 kPa	1149.88 ± 0.97	–
293.15 K, 4000 kPa	1150.84 ± 0.96	–
293.15 K, 6000 kPa	1151.81 ± 0.95	–
293.15 K, 8000 kPa	1152.76 ± 0.96	–
293.15 K, 10000 kPa	1153.7 ± 0.96	–
293.15 K, 12000 kPa	1154.65 ± 0.96	–
293.15 K, 14000 kPa	1155.57 ± 0.96	–
293.15 K, 20000 kPa	1158.32 ± 0.96	–
293.15 K, 30000 kPa	1162.74 ± 0.96	–
293.15 K, 40000 kPa	1167.02 ± 0.96	–
293.15 K, 50000 kPa	1171.16 ± 0.96	–
293.15 K, 60000 kPa	1175.18 ± 0.96	–
294.65 K, 14670 kPa	–	285.1 ± 35
294.75 K, 8260 kPa	–	261.3 ± 32
294.75 K, 10200 kPa	–	270.5 ± 33
294.75 K, 12300 kPa	–	278.6 ± 34
294.77 K, 6430 kPa	–	254.4 ± 28
294.85 K, 140 kPa	–	238.3 ± 29
294.85 K, 760 kPa	–	238.2 ± 29
294.85 K, 2760 kPa	–	242.5 ± 30
294.85 K, 4280 kPa	–	246.6 ± 30
294.91 K, 1460 kPa	–	238.3 ± 29
298.15 K, 100 kPa	1145.47 ± 0.96	–
298.15 K, 2000 kPa	1146.39 ± 0.96	–
298.15 K, 4000 kPa	1147.43 ± 0.96	–
298.15 K, 6000 kPa	1148.36 ± 0.96	–
298.15 K, 8000 kPa	1149.29 ± 0.96	–
298.15 K, 10000 kPa	1150.27 ± 0.96	–
298.15 K, 12000 kPa	1151.22 ± 0.96	–
298.15 K, 14000 kPa	1152.19 ± 0.96	–
298.15 K, 20000 kPa	1154.94 ± 0.96	–
298.15 K, 30000 kPa	1159.42 ± 0.95	–
298.15 K, 40000 kPa	1163.75 ± 0.95	–
298.15 K, 50000 kPa	1167.96 ± 0.96	–
298.15 K, 60000 kPa	1172.02 ± 0.96	–
300.25 K, 1630 kPa	–	179.8 ± 21
300.39 K, 2690 kPa	–	180.5 ± 20
300.42 K, 14380 kPa	–	210.1 ± 24
300.49 K, 4140 kPa	–	184.2 ± 21
300.61 K, 6190 kPa	–	187 ± 21
300.61 K, 12340 kPa	–	202.5 ± 23
300.62 K, 8490 kPa	–	191.3 ± 22
300.68 K, 10400 kPa	–	196.1 ± 22
300.75 K, 1410 kPa	–	175.2 ± 20
300.85 K, 120 kPa	–	168.1 ± 19
303.15 K, 100 kPa	1141.99 ± 0.96	–
303.15 K, 2000 kPa	1142.93 ± 0.96	–
303.15 K, 4000 kPa	1143.92 ± 0.96	–
303.15 K, 6000 kPa	1144.93 ± 0.96	–
303.15 K, 8000 kPa	1145.93 ± 0.96	–
303.15 K, 10000 kPa	1146.85 ± 0.96	–
303.15 K, 12000 kPa	1147.82 ± 0.96	–
303.15 K, 14000 kPa	1148.83 ± 0.96	–
303.15 K, 20000 kPa	1151.57 ± 0.96	–
303.15 K, 30000 kPa	1156.18 ± 0.95	–
303.15 K, 40000 kPa	1160.55 ± 0.96	–
303.15 K, 50000 kPa	1164.76 ± 0.96	–
303.15 K, 60000 kPa	1168.87 ± 0.96	–
308.15 K, 100 kPa	1138.53 ± 0.96	–
308.15 K, 2000 kPa	1139.5 ± 0.96	–
308.15 K, 4000 kPa	1140.49 ± 0.95	–
308.15 K, 6000 kPa	1141.48 ± 0.95	–
308.15 K, 8000 kPa	1142.48 ± 0.95	–
308.15 K, 10000 kPa	1143.45 ± 0.95	–
308.15 K, 12000 kPa	1144.45 ± 0.95	–
308.15 K, 14000 kPa	1145.41 ± 0.95	–
308.15 K, 20000 kPa	1148.24 ± 0.95	–
308.15 K, 30000 kPa	1152.83 ± 0.95	–
308.15 K, 40000 kPa	1157.26 ± 0.95	–
308.15 K, 50000 kPa	1161.57 ± 0.95	–
308.15 K, 60000 kPa	1165.72 ± 0.95	–
308.25 K, 1850 kPa	–	114.6 ± 14
308.35 K, 14230 kPa	–	131.8 ± 15
308.48 K, 12350 kPa	–	128.7 ± 14
308.55 K, 10300 kPa	–	125.6 ± 14
308.59 K, 8230 kPa	–	122.7 ± 14
308.65 K, 110 kPa	–	112.3 ± 12
308.65 K, 800 kPa	–	113 ± 12
308.65 K, 1730 kPa	–	114.4 ± 14
308.65 K, 2760 kPa	–	115.1 ± 13
308.65 K, 4300 kPa	–	117.5 ± 13
308.65 K, 6380 kPa	–	120.2 ± 13
313.15 K, 100 kPa	1135.1 ± 0.95	–
313.15 K, 2000 kPa	1136.08 ± 0.95	–
313.15 K, 4000 kPa	1137.11 ± 0.95	–
313.15 K, 6000 kPa	1138.14 ± 0.95	–
313.15 K, 8000 kPa	1139.15 ± 0.95	–
313.15 K, 10000 kPa	1140.14 ± 0.95	–
313.15 K, 12000 kPa	1141.13 ± 0.95	–
313.15 K, 14000 kPa	1142.09 ± 0.95	–
313.15 K, 20000 kPa	1144.98 ± 0.94	–
313.15 K, 30000 kPa	1149.62 ± 0.94	–
313.15 K, 40000 kPa	1154.1 ± 0.94	–
313.15 K, 50000 kPa	1158.44 ± 0.95	–
313.15 K, 60000 kPa	1162.62 ± 0.95	–
318.15 K, 100 kPa	1131.72 ± 0.95	–
318.15 K, 2000 kPa	1132.7 ± 0.95	–
318.15 K, 4000 kPa	1133.74 ± 0.95	–
318.15 K, 6000 kPa	1134.77 ± 0.95	–
318.15 K, 8000 kPa	1135.78 ± 0.95	–
318.15 K, 10000 kPa	1136.79 ± 0.95	–
318.15 K, 12000 kPa	1137.78 ± 0.95	–
318.15 K, 14000 kPa	1138.79 ± 0.95	–
318.15 K, 20000 kPa	1141.71 ± 0.95	–
318.15 K, 30000 kPa	1146.4 ± 0.94	–
318.15 K, 40000 kPa	1150.92 ± 0.98	–
318.15 K, 50000 kPa	1155.3 ± 0.95	–
318.15 K, 60000 kPa	1159.5 ± 0.95	–
319.85 K, 2700 kPa	–	70.1 ± 8.1
319.89 K, 110 kPa	–	67.7 ± 7.9
319.95 K, 700 kPa	–	68.1 ± 7.9
319.95 K, 4470 kPa	–	70.7 ± 8.2
319.95 K, 6480 kPa	–	72.9 ± 8.4
319.95 K, 14430 kPa	–	77.8 ± 9.1
319.98 K, 3850 kPa	–	70.5 ± 8.2
319.98 K, 12490 kPa	–	76.1 ± 8.9
319.99 K, 8440 kPa	–	73.7 ± 8.5
320.03 K, 1300 kPa	–	68.2 ± 7.9
320.05 K, 2440 kPa	–	69.2 ± 8
320.05 K, 10500 kPa	–	74.9 ± 8.7
323.15 K, 100 kPa	1128.3 ± 0.95	–
323.15 K, 2000 kPa	1129.31 ± 0.95	–
323.15 K, 4000 kPa	1130.36 ± 0.95	–
323.15 K, 6000 kPa	1131.4 ± 0.95	–
323.15 K, 8000 kPa	1132.43 ± 0.95	–
323.15 K, 10000 kPa	1133.45 ± 0.95	–
323.15 K, 12000 kPa	1134.46 ± 0.95	–
323.15 K, 14000 kPa	1135.46 ± 0.95	–
323.15 K, 20000 kPa	1138.4 ± 0.95	–
323.15 K, 30000 kPa	1143.16 ± 0.98	–
323.15 K, 40000 kPa	1147.2 ± 1	–
323.15 K, 50000 kPa	1152.14 ± 0.98	–
323.15 K, 60000 kPa	1156.42 ± 0.95	–
